Assay results: BindingDB's records for doi:10.1021/jm0303352 (National Center For Genetic Engineering and Biotechnology …, 2004)

Columns and labels:
[1] = In vitro antimalarial activity against Plasmodium falciparum TM4/8.2 wtDHFR
[2] = In vitro antimalarial activity against Plasmodium falciparum Csl-2 triple DHFR mutant (C59R/S108N/I164L)/
[3] = In vitro antimalarial activity relative to trimethoprim against Plasmodium falciparum TM4/8.2 wtDHFR
[4] = In vitro antimalarial activity against Plasmodium falciparum Csl-2 triple DHFR mutant (C59R/S108N/I164L) relative to trimethoprim
[5] = In vitro antimalarial activity against Plasmodium falciparum Vl/S with quadruple DHFR mutant (N51I/C59R/S108N/I164L)
[6] = In vitro antimalarial activity against Plasmodium falciparum K1CB1 double DHFR mutant (C59R/S108N)
[7] = In vitro antimalarial activity against Plasmodium falciparum K1CB1 double DHFR mutation (C59R/S108N) relative to trimethoprim
[8] = In vitro antimalarial activity relative to trimethoprim against Plasmodium falciparum Vl/S with quadruple DHFR mutant (N51I/C59R/S108N/I164L)

Row | SMILES | IC50 [1] | IC50 [2] | IC50 ratio [3] | IC50 ratio [4] | IC50 [5] | IC50 [6] | IC50 ratio [7] | IC50 ratio [8]
1 | COc1ccc(Cc2cnc(N)nc2N)cc1OCc1ccccc1 [5-(3-Benzyloxy-4-methoxy-benzyl)-pyrimidine-2,4-diamine] | 17.5 µM | 5.73 µM | 2.62 | 0.05 | > 50 µM | 3.83 µM | 0.03 | 0.25
2 | COc1cc(Cc2c(C)nc(N)nc2N)ccc1OCc1ccccc1 [5-(4-(benzyloxy)-3-methoxybenzyl)-6-methylpyrimidine-2,4-diamine] | 6.84 µM | 2.85 µM | 1.03 | 0.02 | 4.82 µM | 25.2 µM | 0.18 | 
3 | CCc1nc(N)nc(N)c1Cc1ccc(OCc2ccccc2)c(OC)c1 [5-(4-Benzyloxy-3-methoxy-benzyl)-6-ethyl-pyrimidine-2,4-diamine] | 5.06 µM | 5.37 µM | 0.76 | 0.05 | 11.3 µM | 16.3 µM | 0.12 | 
4 | COc1cc(Cc2cnc(N)nc2N)ccc1OCc1cc(OC)c(OC)c(OC)c1 [5-[3-Methoxy-4-(3,4,5-trimethoxy-benzyloxy)-benzyl]-pyrimidine-2,4-diamine] | 0.31 µM | 30.6 µM | 0.05 | 0.26 | 26.1 µM | 27.8 µM | 0.13 | 
